What was measured:
[1] = system: RAD51; test: Western blot of RAD51 expression in TNBC cells; assay type: cell-based, human; conditions: alone, 24 h, TNBC cell lines
Experimental: Western blot analysis was performed as previously described, and all western blot analyses were performed at least three times.
Western blot analysis was performed as previously described. Briefly, whole cell or tissue lysates were prepared using ice-cold Nonidet P-40 buffer mixed with protease and phosphatase inhibitors (Roche, IN, USA) and centrifuged at 14,000 × g at 4 °C for 10 min. The protein lysates were fractionated by sodium dodecyl sulfate–polyacrylamide gel electrophoresis (SDS–PAGE) and transferred to polyvinylidene fluoride (PVDF) membranes (Merck, Darmstadt, Germany). Membranes were incubated in 1× TBST buffer containing 5% nonfat powdered milk at room temperature for 2 h. The indicated primary antibody was incubated with PVDF membranes, followed by a washing step using 1× TBST and a secondary antibody conjugated to HRP. Signal detection was carried out using the Western ECL Substrate kit (Bio-Rad, Hercules, CA, USA). […]

[2] = system: MCF-7 cells; test: MTT cell viability assay, MCF-7; conditions: Homo sapiens, MCF7, 72 h, read-out: IC50 MCF-7
Experimental: (§3) The viability assay was measured by a 3-(4,5-dimethylthiazol-2-yl)−2,5-diphenyltetrazolium bromide (MTT) assay.
(§4) In brief, cells were seeded at a density of 6,000 cells in 96-well plates and cultured overnight. […] After aspiration of the medium, the formazan crystals were dissolved in 100 μL of DMSO. The absorbance at 490 nm was measured using a microplate reader (BioTek). All these analyses were performed at least three times.

[3] = system: MCF-10A cells; test: MTT cell viability assay, MCF-10A; conditions: Homo sapiens, 72 h, read-out: IC50 MCF-10A
Experimental: as §3, §4

[4] = system: MDA-MB-436 cells; test: MTT cell viability assay, MDA-MB-436; conditions: Homo sapiens, MDA-MB-436, 72 h, read-out: IC50 MDA-MB-436
Experimental: as §3, §4

[5] = system: MDA-MB-231 cells; test: MTT cell viability assay, MDA-MB-231; conditions: Homo sapiens, MDA-MB-231, 72 h, read-out: IC50 MDA-MB-231
Experimental: as §3, §4

[6] = system: MDA-MB-468 cells; test: MTT cell viability assay, MDA-MB-468; conditions: Homo sapiens, MDA-MB-468, 72 h, read-out: IC50 MDA-MB-468
Experimental: as §3, §4

[7] = target: T1, PARP1 (Homo sapiens, UniProt P09874); test: PARP1 enzymatic inhibition assay (PARP1 Colorimetric Assay Kit); assay type: biochemical
T1 construct: purchased BPS Bioscience 80580
T1 sequence (P09874 whole entry): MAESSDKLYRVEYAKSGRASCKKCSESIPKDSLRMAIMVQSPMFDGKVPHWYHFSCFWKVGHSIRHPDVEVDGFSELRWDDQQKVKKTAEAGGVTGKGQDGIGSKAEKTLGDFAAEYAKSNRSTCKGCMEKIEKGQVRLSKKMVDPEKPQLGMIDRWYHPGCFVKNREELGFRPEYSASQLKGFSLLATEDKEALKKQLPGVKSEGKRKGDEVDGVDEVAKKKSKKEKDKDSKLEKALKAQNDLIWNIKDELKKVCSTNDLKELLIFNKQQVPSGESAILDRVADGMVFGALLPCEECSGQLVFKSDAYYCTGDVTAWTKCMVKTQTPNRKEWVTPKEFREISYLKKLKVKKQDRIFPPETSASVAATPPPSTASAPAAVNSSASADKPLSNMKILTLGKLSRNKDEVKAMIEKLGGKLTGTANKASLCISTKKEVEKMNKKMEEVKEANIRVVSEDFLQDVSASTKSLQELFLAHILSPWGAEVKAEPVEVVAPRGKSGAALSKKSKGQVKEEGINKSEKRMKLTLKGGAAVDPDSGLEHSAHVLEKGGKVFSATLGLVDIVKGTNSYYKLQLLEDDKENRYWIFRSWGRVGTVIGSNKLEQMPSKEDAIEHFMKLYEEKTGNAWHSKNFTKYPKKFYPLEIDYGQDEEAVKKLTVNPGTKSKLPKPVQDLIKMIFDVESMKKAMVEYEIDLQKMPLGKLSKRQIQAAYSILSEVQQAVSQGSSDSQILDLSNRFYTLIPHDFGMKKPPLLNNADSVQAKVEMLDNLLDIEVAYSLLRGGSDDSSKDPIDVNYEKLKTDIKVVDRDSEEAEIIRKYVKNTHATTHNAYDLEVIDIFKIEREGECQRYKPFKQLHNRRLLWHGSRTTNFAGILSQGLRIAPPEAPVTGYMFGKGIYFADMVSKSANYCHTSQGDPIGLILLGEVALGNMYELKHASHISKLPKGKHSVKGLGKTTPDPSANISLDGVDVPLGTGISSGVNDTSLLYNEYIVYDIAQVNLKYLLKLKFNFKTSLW
Experimental: (§1) Briefly, the 1× histone mixture was added to each well and incubated overnight at 4 °C. Each well was washed three times with 200 µL 1× TBST buffer and filled with 200 µL Blocking buffer at room temperature for 90 min. Then, each well was filled with 25 µL of PARP master mixture (5 μL activated DNA + 2.5 μL 10× PARP Assay mixture + 2.5 μL 10× PARP buffer + 15 μL distilled water). Next, 5 µL of the compound of different concentrations was added to each well, and PARP enzyme was added and incubated at room temperature for 1 h. Next, streptavidin HRP solution was added and incubated at room temperature for 30 min. After adding 100 µL of colorimetric HRP substrate to each well, the plate was incubated until a blue color developed in the positive well, which contained PARP enzyme without inhibitors. The reaction was then quenched with 2 M sulfuric acid, and absorbance at 450 nm was measured using a microplate reader (BioTek, Winooski, VT, USA). After calculating the inhibition rate, the IC50 value was determined.

[8] = target: T2, PARP2 (Homo sapiens, UniProt Q9UGN5); test: PARP2 enzymatic inhibition assay (PARP2 Colorimetric Assay Kit); assay type: biochemical
T2 construct: purchased BPS Bioscience 80581
T2 sequence (Q9UGN5 whole entry): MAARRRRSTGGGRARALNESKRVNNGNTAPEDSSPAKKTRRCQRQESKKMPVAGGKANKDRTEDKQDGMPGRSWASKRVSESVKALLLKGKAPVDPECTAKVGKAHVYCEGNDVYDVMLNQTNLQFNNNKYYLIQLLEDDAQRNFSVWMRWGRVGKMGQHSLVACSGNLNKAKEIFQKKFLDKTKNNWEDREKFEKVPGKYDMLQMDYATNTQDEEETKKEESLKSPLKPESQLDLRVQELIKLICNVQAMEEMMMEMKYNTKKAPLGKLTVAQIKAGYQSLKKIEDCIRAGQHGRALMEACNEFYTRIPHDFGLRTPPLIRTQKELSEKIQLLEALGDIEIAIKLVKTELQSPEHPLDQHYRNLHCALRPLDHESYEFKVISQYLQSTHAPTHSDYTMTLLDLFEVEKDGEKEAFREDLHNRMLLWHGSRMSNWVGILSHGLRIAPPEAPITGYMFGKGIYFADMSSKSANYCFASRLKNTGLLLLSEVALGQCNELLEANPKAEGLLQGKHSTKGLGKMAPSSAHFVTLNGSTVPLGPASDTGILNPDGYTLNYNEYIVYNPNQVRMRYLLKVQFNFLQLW
Experimental: as §1

[9] = target: T3, recombinant HDAC1 (Homo sapiens, UniProt Q13547); test: HDAC1 inhibition assay (Ac-peptide-AMC fluorescence); assay type: biochemical
T3 construct: purchased Active Motif
T3 sequence (Q13547 whole entry): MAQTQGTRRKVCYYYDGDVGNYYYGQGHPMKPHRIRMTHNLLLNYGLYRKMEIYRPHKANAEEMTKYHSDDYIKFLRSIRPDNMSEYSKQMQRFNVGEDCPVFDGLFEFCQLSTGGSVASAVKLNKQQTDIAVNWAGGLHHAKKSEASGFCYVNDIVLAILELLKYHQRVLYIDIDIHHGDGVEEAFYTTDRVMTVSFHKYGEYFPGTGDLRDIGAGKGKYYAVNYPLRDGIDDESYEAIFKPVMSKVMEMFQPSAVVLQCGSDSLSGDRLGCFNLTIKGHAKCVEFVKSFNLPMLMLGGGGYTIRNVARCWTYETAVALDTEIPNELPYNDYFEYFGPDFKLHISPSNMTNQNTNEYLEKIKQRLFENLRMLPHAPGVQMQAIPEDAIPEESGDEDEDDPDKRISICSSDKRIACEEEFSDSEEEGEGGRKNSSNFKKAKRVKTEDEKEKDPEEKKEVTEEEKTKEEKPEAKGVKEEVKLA
Experimental: (§2) The in vitro HDAC inhibition assays were carried out by Sundia MediTech Co. Ltd. in Shanghai, China. […] Reactions were stopped with trypsin, and the samples were incubated for another 90 min at 37 °C. […] IC50 values were obtained using GraphPad Prism software.

[10] = target: T4, recombinant HDAC6 (Homo sapiens, UniProt Q9UBN7); test: HDAC6 inhibition assay (Ac-peptide-AMC fluorescence); assay type: biochemical
T4 construct: purchased BPS Bioscience
T4 sequence (Q9UBN7 1-1215): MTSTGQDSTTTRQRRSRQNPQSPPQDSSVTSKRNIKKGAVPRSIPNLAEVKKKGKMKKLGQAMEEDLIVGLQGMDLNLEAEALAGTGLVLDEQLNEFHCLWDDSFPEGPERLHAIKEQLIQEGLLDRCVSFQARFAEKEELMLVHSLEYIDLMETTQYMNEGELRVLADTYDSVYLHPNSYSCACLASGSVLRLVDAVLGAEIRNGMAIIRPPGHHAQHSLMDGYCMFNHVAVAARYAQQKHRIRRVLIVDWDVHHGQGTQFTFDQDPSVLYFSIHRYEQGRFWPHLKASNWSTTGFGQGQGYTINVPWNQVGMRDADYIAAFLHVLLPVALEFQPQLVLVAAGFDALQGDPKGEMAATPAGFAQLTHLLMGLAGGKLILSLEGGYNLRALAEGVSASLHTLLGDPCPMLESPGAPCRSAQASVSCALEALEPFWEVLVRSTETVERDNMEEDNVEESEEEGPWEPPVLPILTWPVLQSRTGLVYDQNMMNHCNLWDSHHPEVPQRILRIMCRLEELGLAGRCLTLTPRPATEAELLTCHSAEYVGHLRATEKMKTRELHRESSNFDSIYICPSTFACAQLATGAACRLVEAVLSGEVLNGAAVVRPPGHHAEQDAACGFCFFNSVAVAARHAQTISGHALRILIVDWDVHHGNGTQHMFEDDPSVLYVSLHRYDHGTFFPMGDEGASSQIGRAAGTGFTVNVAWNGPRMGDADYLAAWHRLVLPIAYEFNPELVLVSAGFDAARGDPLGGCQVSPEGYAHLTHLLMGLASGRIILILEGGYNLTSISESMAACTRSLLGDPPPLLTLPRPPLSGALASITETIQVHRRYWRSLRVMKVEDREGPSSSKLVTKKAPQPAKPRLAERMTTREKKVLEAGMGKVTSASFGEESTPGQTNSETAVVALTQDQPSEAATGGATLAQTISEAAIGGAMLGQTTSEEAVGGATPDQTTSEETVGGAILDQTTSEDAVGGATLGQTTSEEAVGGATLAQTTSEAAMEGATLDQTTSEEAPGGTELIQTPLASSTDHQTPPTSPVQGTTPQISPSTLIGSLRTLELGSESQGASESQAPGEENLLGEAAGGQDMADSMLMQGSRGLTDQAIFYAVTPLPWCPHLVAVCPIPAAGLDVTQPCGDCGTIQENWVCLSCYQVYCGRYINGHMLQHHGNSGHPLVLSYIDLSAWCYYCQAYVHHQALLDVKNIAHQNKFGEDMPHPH
Experimental: as §2

[11] = system: MDA-MB-436, MDA-MB-231, and MDA-MB-468 cells; test: Colony formation assay; assay type: cell-based, human; conditions: low dose
Experimental: MDA-MB-231, MDA-MB-436 and MDA-MB-468 cells were seeded at a density of 2,000 cells in 6-well plates and cultured overnight. […] The cells were fixed with 4% paraformaldehyde (Merck) for 1 h at room temperature and stained with 0.1% crystal violet (Beyotime Biotechnology) for 30 min. Under an inverted phase contrast microscope (Leica Microsystems, Heidelberg, Germany), cell colonies were photographed at 5× magnification. All these analyses were performed at least three times.

[12] = system: CCL5 and CXCL10 mRNA; test: RT-PCR of CCL5 and CXCL10 mRNA; assay type: cell-based, human; conditions: MDA-MB-436 and MDA-MB-468 cells, 48 h
Experimental: Total RNA was extracted using the Eastep Super Total RNA Extraction Kit (Promega, Charbonnières, France) according to the manufacturer’s protocol. Reverse transcription was performed using HyperScript RT SuperMix for qPCR (APExBIO, Houston, TX, USA). Gene expression was quantified with Hieff qPCR SYBR Green Master Mix (Yeason) on an ABI 7500 (Applied Biosystems, Grand Island, NY, USA). Data were then analyzed using the 2^-ΔΔCT method. The primers were designed and synthesized by Sangon Biotech, and the sequences are shown in Supporting Information Table S1.

IC50 [2] [nM]	IC50 [4] [nM]	IC50 [5] [nM]	IC50 [6] [nM]	IC50 [7] [nM]	IC50 [8] [nM]	IC50 [9] [nM]	IC50 [10] [nM]	SMILES	RAD51 expression [1]	IC50 [3] [nM]	clonogenicity ([11]; BRCA1- and HRR-deficient MDA-MB-436 cells)	clonogenicity ([11]; MDA-MB-231 and MDA-MB-468 cells)	mRNA levels of CCL5 and CXCL10 [12]
4600 ± 780	4150 ± 920	2340 ± 920	750 ± 220					Nc1cc(F)ccc1NC(=O)c1ccc(CNC(=O)/C=C/c2cccnc2)cc1 [Chidamide, chidamide, reference compound]	reduced the expression of RAD51	> 50000			
3620 ± 1210	530 ± 80	410 ± 10	300 ± 50	13.2	4.08	120	> 10000	Nc1ccccc1NC(=O)/C=C/c1ccc(CN2CCN(C(=O)c3cc(Cc4n[nH]c(=O)c5ccccc45)ccc3F)CC2)cc1 [Compound B101]		1450 ± 90			
5300 ± 1230	970 ± 730	380 ± 80	1350 ± 550	7.55	13.8	60	> 10000	Nc1ccccc1NC(=O)Cc1ccc(CN2CCN(C(=O)c3cc(Cc4n[nH]c(=O)c5ccccc45)ccc3F)CC2)cc1 [Compound B201]		14000 ± 2450			
15600 ± 3520	650 ± 140	460 ± 120	560 ± 100	10.3	34.2	160	> 10000	Nc1cc(F)ccc1NC(=O)Cc1ccc(CN2CCN(C(=O)c3cc(Cc4n[nH]c(=O)c5ccccc45)ccc3F)CC2)cc1 [Compound B202]		9830 ± 750			
3530 ± 1110	1730 ± 820	1960 ± 630	1750 ± 370	11.4	70.4	> 10000	> 10000	Nc1ccccc1NC(=O)CCc1ccc(CN2CCN(C(=O)c3cc(Cc4n[nH]c(=O)c5ccccc45)ccc3F)CC2)cc1 [Compound B301]		30000 ± 9800			
						> 10000	> 10000	Nc1ccccc1NC(=O)CN1CCN(C(=O)c2cc(Cc3n[nH]c(=O)c4ccccc34)ccc2F)CC1 [Compound B401]					
						> 10000	> 10000	Nc1cc(F)ccc1NC(=O)CN1CCN(C(=O)c2cc(Cc3n[nH]c(=O)c4ccccc34)ccc2F)CC1 [Compound B402]					
						> 10000	> 10000	Nc1ccccc1NC(=O)CCN1CCN(C(=O)c2cc(Cc3n[nH]c(=O)c4ccccc34)ccc2F)CC1 [Compound B501]					
						> 10000	> 10000	Nc1cc(F)ccc1NC(=O)CCN1CCN(C(=O)c2cc(Cc3n[nH]c(=O)c4ccccc34)ccc2F)CC1 [Compound B502]					
						> 10000	> 10000	Nc1ccccc1NC(=O)CCCN1CCN(C(=O)c2cc(Cc3n[nH]c(=O)c4ccccc34)ccc2F)CC1 [Compound B601]					
						> 10000	> 10000	Nc1cc(F)ccc1NC(=O)CCCN1CCN(C(=O)c2cc(Cc3n[nH]c(=O)c4ccccc34)ccc2F)CC1 [Compound B602]					
> 25000	8080 ± 2020	3240 ± 2200	14500 ± 2440					O=C(c1cc(Cc2n[nH]c(=O)c3ccccc23)ccc1F)N1CCN(C(=O)C2CC2)CC1 [Olaparib, olaparib, reference compound]		28000 ± 3480	reduced the clonogenicity	this effect was not observed	rise in the mRNA levels of CCL5 and CXCL10

Source: publication PMC10770036, “Novel dual inhibitors of PARP and HDAC induce intratumoral STING-mediated antitumor immunity in triple-negative breast cancer” (Cell Death & Disease, 2024)
